Like-named read-outs stand apart in the source and are kept apart here.
What was measured:
[1] = Short term HFD mouse model: plasma and liver exposure; assay type: in vivo, mice (C57BL/6J); conditions: HFD mice, 4 h after last dose
Experimental: Short Term HFD Mouse Model:
The in vivo transcriptional regulation of several LXR target genes by LXR modulators was assessed in mice.
For this, C57BL/6J were purchased from Elevage Janvier (Rennes, France) at the age of 8 weeks. After an acclimation period of two weeks, animals were preferred on a high fat diet (HFD) (Ssniff Spezialdiäten GmbH, Germany, Surwit EF D12330 mod, Cat. No. E15771-34), with 60 kcal % from fat plus 1% (w/w) extra cholesterol (Sigma-Aldrich, St. Louis, Mo.) for 5 days. Animals were maintained on this diet during treatment with LXR modulators. The test compounds were formulated in 0.5% hydroxypropylmethylcellulose (HPMC) and administered in three doses (from 1.5 to 20 mg/kg each) by oral gavage according to the following schedule: on day one, animals received treatment in the morning and the evening (ca. 17:00), on day two animals received the final treatment in the morning after a 4 h fast and were sacrificed 4 h thereafter. Animal work was conducted according to the national guidelines for animal care in Germany.
Upon termination, liver was collected, dipped in ice cold PBS for 30 seconds and cut into appropriate pieces. Pieces were snap frozen in liquid nitrogen and stored at −80° C. For the clinical chemistry analysis from plasma, alanine aminotransferase (ALT, IU/mL), cholesterol (CHOL, mg/dL) and triglycerides (TG, mg/dL) were determined using a fully-automated bench top analyzer (Respons®910, DiaSys Greiner GmbH, Flacht, Germany) with system kits provided by the manufacturer.

[2] = target: T1, LXRβ ligand-binding domain (Homo sapiens, UniProt P55055, DUP175-175); test: TR-FRETβ activity assay (NCoA3 coactivator peptide recruitment); assay type: biochemical
T1 construct: amino acids 156-461; NP009052; made in house; host or cells: E. coli
T1 sequence (P55055 with tags, fused parts or gaps DUP175-175 limits assumed): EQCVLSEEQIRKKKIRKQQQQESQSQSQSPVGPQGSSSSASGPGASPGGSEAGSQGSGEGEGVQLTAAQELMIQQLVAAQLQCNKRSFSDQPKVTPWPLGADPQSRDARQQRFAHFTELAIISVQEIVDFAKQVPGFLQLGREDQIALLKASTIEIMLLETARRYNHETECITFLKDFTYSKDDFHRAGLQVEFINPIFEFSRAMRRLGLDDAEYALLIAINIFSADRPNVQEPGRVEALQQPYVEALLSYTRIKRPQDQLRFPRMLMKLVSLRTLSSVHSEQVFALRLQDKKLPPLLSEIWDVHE
How it was run: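 Inverse agonism assessed by loss of coactivator recruitment, read as TR-FRET 665/615 nm after 1 h equilibration at 4 °C, in triplicate. Ten-point titration from 50 μM to 0.002 μM against LXRβ LBD (76 nM, GST fusion) prestimulated with 1 μM 24(S)-25-epoxycholesterol, with 400 nM NCoA3 peptide, pH 6.8. Sulfonyl acetic acids kept as 20 mM DMSO stocks with 100 mM TFA.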

[3] = TR-FRET, 1 μM 24(S)-25-epoxycholesterol prestimulation, read-out: FRETβ (EC50 range)

SMILES	liver exposure 4 h ([1]; three oral doses of 10 mg/kg)	liver/plasma ratio 4 h ([1]; three oral doses of 10 mg/kg)	plasma exposure 4 h ([1]; three oral doses of 10 mg/kg)	EC50 [2, 3]	further results
N#Cc1cccc(C#N)c1-c1c(-c2cccc(-c3cc(F)c(C(=O)O)cc3Cl)c2)n(S(=O)(=O)c2ccc(C(F)F)cc2)c2ccc(F)cc12 [11/65]	C (1 μM to ≤10 μM)	C (30 to ≤100)	D (D: <100 nM)	< 0.1 µM	–
N#Cc1cccnc1-c1c(-c2cccc(-c3ccc(C(=O)O)cc3Cl)c2)n(S(=O)(=O)c2ccc(C(F)F)cc2)c2ccc(F)cc12 [11/26]	C (1 μM to ≤10 μM)	C (30 to ≤100)	C (C: 100 nM to <300 nM)	< 0.1 µM	–
CN(CCS(=O)(=O)O)C(=O)c1ccc(-c2cccc(-c3c(-c4c(C#N)cccc4C#N)c4cc(F)ccc4n3S(=O)(=O)c3ccc(C(F)F)cc3)c2)c(Cl)c1 [10/2]	D (>10 μM)	B (5 to ≤30)	D (D: <100 nM)	< 0.1 µM	–
N#Cc1cccc(C#N)c1-c1c(-c2cccc(-c3ccc(C(=O)O)cc3Cl)c2)n(S(=O)(=O)c2ccc(C(F)F)cc2)c2ccc(F)cc12 [11/12]	–	–	–	< 0.1 µM	liver exposure 4 h ([1]; three oral doses of 20 mg/kg): C (1 μM to ≤10 μM); liver/plasma ratio 4 h ([1]; three oral doses of 20 mg/kg): C (30 to ≤100); plasma exposure 4 h ([1]; three oral doses of 20 mg/kg): D (D: <100 nM)
O=C(O)c1ccc(-c2cccc(-c3c(-c4c(Cl)cccc4Cl)c4cc(F)ccc4n3S(=O)(=O)c3ccc(C(F)F)cc3)c2)c(Cl)c1 [11/13]	–	–	–	< 0.1 µM	liver exposure 4 h ([1]; three oral doses of 20 mg/kg): C (1 μM to ≤10 μM); liver/plasma ratio 4 h ([1]; three oral doses of 20 mg/kg): A (<5); plasma exposure 4 h ([1]; three oral doses of 20 mg/kg): A (A: >1 μM)
N#Cc1cccc(C#N)c1-c1c(-c2cccc(-c3ccc(C(=O)NCC(=O)O)cc3Cl)c2)n(S(=O)(=O)c2ccc(C(F)F)cc2)c2ccc(F)cc12 [21/3]	C (1 μM to ≤10 μM)	D (>100)	D (D: <100 nM)	< 0.1 µM	–
N#Cc1cccc(C#N)c1-c1c(-c2cccc(-c3c(F)cc(CC(=O)O)cc3F)c2)n(S(=O)(=O)c2ccc(C(F)F)cc2)c2ccc(F)cc12 [3/73]	B (300 nM to ≤1 μM)	C (30 to ≤100)	D (D: <100 nM)	< 0.1 µM	–
Cc1ccc(S(=O)(=O)n2c(-c3cccc(-c4ccc(C(=O)O)cc4)c3)c(-c3ccsc3C#N)c3cc(F)ccc32)cc1 [5/3]	–	–	–	0.1 to 1 µM	liver exposure 4 h ([1]; three oral doses of 20 mg/kg): C (1 μM to ≤10 μM); liver/plasma ratio 4 h ([1]; three oral doses of 20 mg/kg): B (5 to ≤30); plasma exposure 4 h ([1]; three oral doses of 20 mg/kg): D (D: <100 nM)
Cc1ccc(S(=O)(=O)n2c(-c3cccc(N4CC(C(=O)O)C4)c3)c(-c3ccsc3C#N)c3cc(F)ccc32)cc1 [3/32]	–	–	–	0.1 to 1 µM	FRETβ efficacy (value in brackets) ([2]; 1 μM 24(S)-25-epoxycholesterol as prestimulating agonist): −98%; EC50 ([2]; 1 μM 24(S)-25-epoxycholesterol as prestimulating agonist, read-out: FRETβ potency): 0.551 µM
Cc1ccc(S(=O)(=O)n2c(-c3cccc(N4CC(C(=O)O)C4)c3)c(-c3ccsc3C#N)c3cc(F)c(Cl)cc32)cc1 [3/43]	–	–	–	1 to 10 µM	–
Cc1ccc(S(=O)(=O)n2c(-c3cccc(N4CC(C(=O)O)C4)c3)c(-c3ccsc3C#N)c3cc(C)ccc32)cc1 [3/46]	–	–	–	0.1 to 1 µM	–
Cc1ccc(S(=O)(=O)n2c(-c3cccc(N4CC(C(=O)O)C4)c3)c(-c3ccsc3C#N)c3cc(F)c(F)cc32)cc1 [3/42]	–	–	–	1 to 10 µM	–
Cc1ccc(S(=O)(=O)n2c(-c3cccc(N4CC(C(=O)O)C4)c3)c(-c3ccsc3C#N)c3cc(Cl)ccc32)cc1 [3/44]	–	–	–	1 to 10 µM	–

Source: US11618747B2, “LXR modulators with bicyclic core moiety” (OrsoBio, Inc., priority 2018, dated 2023)
